From PubChem BioAssay AID1645848
≈ marks a conversion by molar mass, not a printed value.

Conditions: buffer; pH 7.4; 6.0 h; 150.0 µM

Structure (SMILES)	solubility kinetic [µg/mL]
CC(C)(C)C(=O)N1CCN(c2nccc(Nc3ccccc3Cl)n2)CC1	26.3 (≈ 70.3 µM)
CC(=O)N1CCN(c2nc(-c3ccc(Br)cc3)cs2)CC1	< 1
CCOc1ccc(C2C(C(=O)Nc3ccccc3OC)=C(C)Nc3c(C(=O)Nc4cccc(C)c4)cnn32)cc1 (configuration not stated)	< 1
Cn1nnnc1Sc1ncnc2scc(-c3cc4ccccc4o3)c12	< 1
Cc1cc(C)nc(NC(=S)N2CCN(c3cc(C(F)(F)F)nc4ccccc34)CC2)c1	19.7 (≈ 44.3 µM)
NC(=O)C1CCN(c2ncc(-c3ccc(Br)cc3)s2)CC1	1.62 (≈ 4.42 µM)
CC(C)(C)c1ccc(C(=O)N2CC(=O)Nc3ccc(F)cc3C2c2ccc(F)cc2)cc1 (configuration not stated)	< 1
Br.CC(Cc1ccc(O)cc1)NCC(O)c1cc(O)cc(O)c1 (configuration not stated)	> 45
Cc1ccc(-c2cc(C(=O)NCc3cnn(C)c3C)c3cc(Br)ccc3n2)cc1	< 1
NC(=O)C1CCN(c2nc(-c3ccccc3-c3ccccc3)cs2)CC1	30.6 (≈ 84.3 µM)
COC(C)(C)CCn1nc(Nc2c(C)cccc2C)c2cnc(Nc3ccc(OCCN4CCCC4)c(F)c3)nc21	28.3 (≈ 50.3 µM)
Cc1ccc2nc(NC3=NC(c4[nH]ncc4Cl)C4=C(CCCC4=O)N3)oc2c1 (configuration not stated)	< 1
CCOc1cc(F)c(CCNC(=O)c2cc3sccc3n2Cc2ccccc2)cc1OCC	< 1
Fc1cnc(-c2ccccc2C(F)F)nc1NCC1CCN(c2cnccn2)CC1	< 1
CC(C)c1ccccc1-c1ncc(F)c(NCC2CCN(c3cccnc3)CC2)n1	9.06 (≈ 22.3 µM)
COc1cccc(CNC(=O)c2c(OC)cc(=O)n3c2CCN(C(=O)c2ccc(C)cc2C)CC3)c1	> 72
COc1ccccc1Nc1cnc2ccc(-c3ccc(OC)c(OC)c3)nn12	< 1
CC1=Nc2cc(C(=O)NCCc3ccccc3)ccc2Sc2c(C)ccc(C)c21	< 1
O=C(NCC1CCN(Cc2cccc(Cl)c2)CC1)Nc1ccc(F)c(Cl)c1	25.1 (≈ 61.3 µM)
O=c1c(-c2ccc(O)cc2)coc2cc(O)cc(O)c12	27.3 (≈ 101 µM)
Clc1ccc(Nc2nc(-c3ccncc3)nc3ccccc23)cc1Cl	< 1

Structure (SMILES)	solubility kinetic [µg/mL]
Nc1ncnc2c1ncn2[C@H]1O[C@@H](CO)[C@@H](O)[C@H]1N	> 39
CCCc1ccc(-c2csc(NC(=O)c3ccncc3NS(=O)(=O)c3ccc(C)cc3)n2)cc1	< 1
COc1cccc(CNc2ccc(S(=O)(=O)Nc3nc4ccccc4[nH]3)cc2)c1O	2.59 (≈ 6.1 µM)
O=C(NC(c1ccccc1)c1cc(Cl)c2cccnc2c1O)c1cccnc1 (configuration not stated)	< 1
O=C1CCCC2=C1C1(CCS(=O)(=O)C1)N=C(Nc1nc3ccccc3o1)N2 (configuration not stated)	1.02 (≈ 2.65 µM)
COc1cc(/C=C(\C#N)c2nc3ccccc3[nH]2)ccc1OCc1ccc(F)cc1	< 1
c1ccc(CNc2cc3c(cn2)CN(Cc2cccnc2)CCN3)cc1	36.5 (≈ 106 µM)
Cc1nn2c(c1-c1ccccc1-c1ccccc1)N(CC1CC1)CCC2	1.56 (≈ 4.53 µM)
CC(C)(C)OC(=O)NC1CCN(c2nc(-c3ccc(Br)cc3)cs2)CC1	6.48 (≈ 14.8 µM)
CCOC(=O)c1c(C)c(-c2ccccc2)n(CC(=O)NCc2ccccc2)c1C	< 1
CC(C)C[C@H]1C(=O)N2CCC[C@H]2[C@]2(O)O[C@](NC(=O)[C@@H]3C=C4c5cccc6[nH]c(Br)c(c56)C[C@H]4N(C)C3)(C(C)C)C(=O)N12	< 1
COc1ccc(C(=O)CCN(C)C)cc1F	> 33
Cc1ccc(/C=C/c2nc3ccccc3n2S(=O)(=O)c2ccc(Br)cc2)cc1	0.184 (≈ 0.406 µM)
COc1ccc(-n2nc(C3CCN(C(=O)Cc4ccc(F)cc4)CC3)[nH]c2=O)cc1	> 61
O=C(c1cnc(N2CCCCC2)c2ccccc12)N1CCN(c2ccc(Cl)cc2)CC1	< 1
COc1ccc(-n2nc(C3CCN(C(=O)C4CC4)CC3)[nH]c2=O)cc1	> 51
CCOc1ccc(CCNC(=O)c2cc3ncccc3n2Cc2cccc(C)c2)cc1OCC	36.5 (≈ 79.7 µM)
Cc1ccc(N2CCC(CNc3nc(-c4ccccc4C(C)C)ncc3F)CC2)cn1	7.65 (≈ 18.2 µM)
COc1ccc(-c2nc(NC(C)c3ccccc3)c3ccccc3n2)cc1 (configuration not stated)	< 1
CN(C(=O)CSc1nc2ccc(NC(=O)c3ccc(F)cc3)cc2s1)c1ccccc1	< 1
Oc1ccccc1CN1CCNc2cc(Nc3ccccc3)ncc2C1	24.3 (≈ 70.1 µM)
